# Test results taken from PMC5129256 (International Journal of Environmental Research and Public …, 2016).
# “And” between values parts separate entries of the source, which are not always exact repeats. Identical values can stand only once. Like-named read-outs stand apart in the source and are kept apart here.
# Key:
# [1] = system: human skin fibroblasts; details: MTS assay; cited from earlier work
# [2] = system: LMH cells
# [3] = system: LMH cells; details: PrestoBlue; for Viability of LMH Cells (%) ±S.E.M.: 24 h
# [4] = system: human adenocarcinoma cell line HT-29; design: method as in PMID 14642818; details: HT-29, 20 mM (or 0.04%); cited from earlier work
# [5] = in vitro; details: chicken, LMH chicken liver hepatocellular carcinoma cells, Viability of LMH Cells (%) ± SD, MTT
# [6] = system: laboratory mice; details: mouse, in vivo; cited from earlier work
compound,measurement,setting,value
N [Ammonium],IC50,[1],9.4 mM
same,Viability of LMH Cells (%) ± SD,"[2]; MTT, 0.004%, 24 h",97.6 ± 4.3%
same,Viability of LMH Cells (%) ± SD,"[2]; MTT, 0.004%, 48 h",95.6 ± 2.9%
same,Viability of LMH Cells (%) ± SD,"[2]; MTT, 0.004%, 72 h",101.9 ± 5.0%
same,Viability of LMH Cells (%) ± SD,"[2]; MTT, 0.008%, 24 h",98.0 ± 3.0%
same,Viability of LMH Cells (%) ± SD,"[2]; MTT, 0.008%, 48 h",96.8 ± 1.3%
same,Viability of LMH Cells (%) ± SD,"[2]; MTT, 0.008%, 72 h",104.8 ± 2.6%
same,Viability of LMH Cells (%) ± SD,"[2]; MTT, 0.016%, 24 h",93.3 ± 2.8%
same,Viability of LMH Cells (%) ± SD,"[2]; MTT, 0.016%, 48 h",81.4 ± 5.2 %
same,Viability of LMH Cells (%) ± SD,"[2]; MTT, 0.063%, 24 h",61.9 ± 2.0 %
same,Viability of LMH Cells (%) ± SD,"[2]; MTT, 0.063%, 48 h",28.3 ± 1.3 %
same,Viability of LMH Cells (%) ± SD,"[2]; MTT, 0.063%, 72 h",13.8 ± 1.2 %
same,Viability of LMH Cells (%) ± SD,"[2]; MTT, 0.125%, 24 h",18.1 ± 0.8 %
same,Viability of LMH Cells (%) ± SD,"[2]; MTT, 0.125%, 48 h",7.1 ± 0.8 %
same,Viability of LMH Cells (%) ± SD,"[2]; MTT, 0.125%, 72 h",10.0 ± 1.3 %
same,Viability of LMH Cells (%) ± SD,"[2]; MTT, 0.25%, 24 h",5.4 ± 0.1 %
same,Viability of LMH Cells (%) ± SD,"[2]; MTT, 0.25%, 48 h",1.6 ± 0.2 %
same,Viability of LMH Cells (%) ± SD,"[2]; MTT, 0.25%, 72 h",2.9 ± 0.1 %
same,Viability of LMH Cells (%) ± SD,"[2]; MTT, 0.5%, 24 h",5.9 ± 0.2 %
same,Viability of LMH Cells (%) ± SD,"[2]; MTT, 0.5%, 48 h",2.1 ± 0.2 %
same,Viability of LMH Cells (%) ± SD,"[2]; MTT, 0.5%, 72 h",2.8 ± 0.2 %
same,Viability of LMH Cells (%) ± SD,"[2]; MTT, 1.0%, 24 h",13.1 ± 0.1 %
same,Viability of LMH Cells (%) ± SD,"[2]; MTT, 1.0%, 48 h",1.7 ± 0.2 %
same,Viability of LMH Cells (%) ± SD,"[2]; MTT, 1.0%, 72 h",5.8 ± 0.1 %
same,IC50 (%),"[2]; MTT, 24 h exposure, from dose-response curves",0.08%
same,IC50 (%),"[2]; MTT, 48 h exposure, from dose-response curves",0.04%
same,IC50 (%),"[2]; MTT, 72 h exposure, from dose-response curves",0.02%
same,Viability of LMH Cells (%) ± SD,"[2]; MTT, […], 24 h",96.4 ± 1.2%
same,Viability of LMH Cells (%) ± SD,"[2]; MTT, […], 48 h",65.5 ± 4.0 %
same,Viability of LMH Cells (%) ± SD,"[2]; MTT, […], 72 h",31.6 ± 2.1 %
same,Viability of LMH Cells (%) ±S.E.M.,[3]; 0.004%,99.7 ± 5.8%
same,Viability of LMH Cells (%) ±S.E.M.,[3]; 0.008%,99.0 ± 10.1%
same,Viability of LMH Cells (%) ±S.E.M.,[3]; 0.016%,100.2 ± 8.1%
same,Viability of LMH Cells (%) ±S.E.M.,[3]; 0.063%,51.1 ± 7.1 %
same,Viability of LMH Cells (%) ±S.E.M.,[3]; 0.125%,24.6 ± 6.3 %
same,Viability of LMH Cells (%) ±S.E.M.,[3]; 0.25%,5.7 ± 1.1 %
same,Viability of LMH Cells (%) ±S.E.M.,[3]; 0.5%,4.6 ± 0.6 %
same,Viability of LMH Cells (%) ±S.E.M.,[3]; 1.0%,4.7 ± 0.7 %
same,IC50 (%),"[3]; 24 h exposure, from dose-response curves",0.07%
same,Viability of LMH Cells (%) ±S.E.M.,[3]; […],99.1 ± 4.9%
same,effect on proliferation,[4],almost suppressed proliferation
CCCC(=O)O [Butyric acid],"viability at 24 h, 0.006 %","[5]; 0.006%, 24 h",100 ± 0.7%
same,"viability at 72 h, 0.006 %","[5]; 0.006%, 72 h",98.2 ± 2.1%
same,"viability at 24 h, 0.013 %","[5]; 0.013%, 24 h",100 ± 0.4%
same,"viability at 72 h, 0.013 %","[5]; 0.013%, 72 h",95.7 ± 2.1%
same,"viability at 24 h, 0.025 %","[5]; 0.025%, 24 h",100 ± 0.3%
same,"viability at 72 h, 0.025 %","[5]; 0.025%, 72 h",86 ± 4.8%
same,"viability at 24 h, 0.063 %","[5]; 0.063%, 24 h",68.9 ± 1.4%
same,"viability at 72 h, 0.063 %","[5]; 0.063%, 72 h",66.5 ± 3.2%
same,"viability at 24 h, 0.125 %","[5]; 0.125%, 24 h",65 ± 0.8%
same,"viability at 72 h, 0.125 %","[5]; 0.125%, 72 h",46.4 ± 3.2%
same,"viability at 24 h, 0.25 %","[5]; 0.25%, 24 h",59.4 ± 1.3%
same,"viability at 72 h, 0.25 %","[5]; 0.25%, 72 h",31.1 ± 2%
same,"viability at 24 h, 0.5 %","[5]; 0.5%, 24 h",25.1 ± 0.7%
same,"viability at 72 h, 0.5 %","[5]; 0.5%, 72 h",7.6 ± 0.7%
same,"viability at 24 h, […]","[5]; […], 24 h",89.3 ± 2%
same,"viability at 72 h, […]","[5]; […], 72 h",67.2 ± 4.9%
same,IC50 (%),[2],0.32% and 0.11%
same,cytotoxicity,"[2]; MTT, 0.5%, 72 h",92.4%
same,dose-dependent inhibition reached,"[2]; MTT, 72 h exposure, concentrations above 0.0125%",92%
CNC [Dimethylamine],RD50 (concentration which reduces the rate of respiration by 50%),[6],70 mL/m^3
same,IC50 (%),[2],0.06%
same,IC80,[2],0.04% and 0.04 * %
same,Viability of LMH Cells (%) ± SD,[2],20.5 ± 0.1 %
same,cytotoxicity,[2],above 80%
